The text below walks through data of ChEMBL document CHEMBL5500360, “Discovery of N-(4-((6-(3,5- Dimethoxyphenyl)-9H-purine derivatives as irreversible covalent FGFR inhibitors” (Eur J Med Chem, 2024).

Data set [1] deals with MDA-MB-231. Briefly: Induction of apoptosis in human MDA-MB-231 cells assessed as late apoptotic cells at 5 uM incubated for 24 hrs by Annexin V-FITC/PI staining based flow cytometric analysis (reference value: 0.161 %). The format is functional. (In general: Flow cytometry measures light scatter and fluorescence of single cells or particles in a stream.)
Another data set deals with KYSE-150 cell line. The experiment in a line: cells. Conditions: Homo sapiens, KYSE-150, 72 h.
A short description of a further data set: in vitro. Conditions: human, HUVEC cells.
Data set [2] has as its system MDA-MB-231. Briefly: Induction of apoptosis in human MDA-MB-231 cells assessed as viable cells at 5 uM incubated for 24 hrs by Annexin V-FITC/PI staining based flow cytometric analysis (reference value: 99.645%). The format is functional. The conditions noted are these: read-out: Activity.
Data set [3] concerns MDA-MB-231. The experiment in a line: Induction of ROS production in human MDA-MB-231 cells at 5 uM incubated for 12 hrs by flow cytometry based confocal microscopic analysis. The format is functional, cell-based.
Data set [4] deals with MDA-MB-231. Briefly: Cell cycle arrest in human MDA-MB-231 cells assessed as accumulation of S phase cells at 5 uM incubated for 24 hrs by […]PI staining based flow cytometric analysis (reference value: 41.29%). The format is functional.
Data set [5] deals with MDA-MB-231. Briefly: Cell cycle arrest in human MDA-MB-231 cells assessed as accumulation of G0-G1 phase cells at 5 uM incubated for 24 hrs by […]PI staining based flow cytometric analysis (reference value: 41.83%). The format is functional.
Data set [6] relates to MDA-MB-231. The experiment in a line: Induction of apoptosis in human MDA-MB-231 cells assessed as necrotic cells at 5 uM incubated for 24 hrs by Annexin V-FITC/PI staining based flow cytometric analysis (reference value: 0.063 %). The format is functional.
For data set [7], the system named is MDA-MB-231. Briefly: Antitumor activity against human MDA-MB-231 cells xenografted in female BALB/c athymic nude mouse assessed as tumor growth inhibition at 10 mg/kg, po administered once a day via gavage for 21 days relative to control. The format is functional. Conditions: MDA-MB-231, 504 h, time 21 day, read-out: TGI.
Another data set concerns HepG2. The experiment in a line: cells. The conditions noted are these: Homo sapiens, HepG2, 72 h.
The subject of data set [8] is MDA-MB-231. Briefly: Inhibition of cell migration in human MDA-MB-231 cells at 2.5 uM incubated for 12 hrs by cell scratch assay. The format is functional, cell-based.
The test system of another data set is MDA-MB-435. Briefly: cells. The conditions noted are these: Homo sapiens, MDA-MB-435, 72 h.
Data set [9] concerns MDA-MB-231. The experiment in a line: cells. Conditions: Homo sapiens, MDA-MB-231, 72 h.
Data set [10] concerns MDA-MB-231. Briefly: Induction of apoptosis in human MDA-MB-231 cells assessed as apoptotic cells at 5 uM incubated for 24 hrs by Annexin V-FITC/PI staining based flow cytometric analysis relative to control. The format is functional.
In data set [11] the test system is MDA-MB-231. Briefly: Cell cycle arrest in human MDA-MB-231 cells assessed as accumulation of G2-M phase cells at 5 uM incubated for 24 hrs by […]PI staining based flow cytometric analysis (reference value: 16.88%). The format is functional.
The subject of data set [12] is MDA-MB-231. Briefly: Induction of apoptosis in human MDA-MB-231 cells assessed as early apoptotic cells at 5 uM incubated for 24 hrs by Annexin V-FITC/PI staining based flow cytometric analysis (reference value: 0.131 %). The format is functional.
Data set [13] is described as follows: Metabolic stability in human liver microsomes assessed as parent compound remaining at 1 uM measured after 5 mins by LC-MS/MS analysis. The format is ADME, Microsome. The conditions noted are these: read-out: Stability.
A short description of data set [14]: Metabolic stability in mouse liver microsomes assessed as intrinsic clearance at 1 uM incubated for 45 mins by LC-MS/MS analysis. The format is ADME, Microsome. Conditions: read-out: CLH. Background: Microsomes from liver hold many membrane-bound enzymes, among them those of drug oxidation.
Data set [15] in a line: Metabolic stability in human liver microsomes assessed as parent compound remaining at 1 uM measured after 30 mins by LC-MS/MS analysis. The format is ADME, Microsome. Conditions: read-out: Stability.
The nature of data set [16]: Metabolic stability in human liver microsomes assessed as intrinsic clearance at 1 uM incubated for 45 mins by LC-MS/MS analysis. The format is ADME, Microsome. Conditions: read-out: CLH.
Data set [17] can be described thus: Metabolic stability in mouse liver microsomes assessed as parent compound remaining at 1 uM measured after 45 mins by LC-MS/MS analysis. The format is ADME, Microsome. Conditions: read-out: Stability.
The nature of data set [18]: Metabolic stability in rat liver microsomes assessed as parent compound remaining at 1 uM measured after 15 mins by LC-MS/MS analysis. The format is ADME, Microsome. Conditions: read-out: Stability.
Data set [19] in a line: Metabolic stability in mouse liver microsomes assessed as half-life at 1 uM incubated for 45 mins by LC-MS/MS analysis. The format is ADME, Microsome.
The nature of data set [20]: Metabolic stability in rat liver microsomes assessed as parent compound remaining at 1 uM measured after 30 mins by LC-MS/MS analysis. The format is ADME, Microsome. The conditions noted are these: read-out: Stability.
The nature of data set [21]: Metabolic stability in rat liver microsomes assessed as parent compound remaining at 1 uM measured after 5 mins by LC-MS/MS analysis. The format is ADME, Microsome. Conditions: read-out: Stability.
The nature of data set [22]: Metabolic stability in human liver microsomes assessed as parent compound remaining at 1 uM measured after 45 mins by LC-MS/MS analysis. The format is ADME, Microsome. The conditions noted are these: read-out: Stability.
Data set [23] can be described thus: Metabolic stability in mouse liver microsomes assessed as parent compound remaining at 1 uM measured after 30 mins by LC-MS/MS analysis. The format is ADME, Microsome. Conditions: read-out: Stability.
Data set [24] in a line: Metabolic stability in rat liver microsomes assessed as parent compound remaining at 1 uM measured after 45 mins by LC-MS/MS analysis. The format is ADME, Microsome. The conditions noted are these: read-out: Stability.
Data set [25] in a line: Metabolic stability in mouse liver microsomes assessed as parent compound remaining at 1 uM measured after 5 mins by LC-MS/MS analysis. The format is ADME, Microsome. Conditions: read-out: Stability.
Data set [26] in a line: Metabolic stability in human liver microsomes assessed as parent compound remaining at 1 uM measured after 15 mins by LC-MS/MS analysis. The format is ADME, Microsome. The conditions noted are these: read-out: Stability.
Data set [27] is described as follows: Metabolic stability in rat liver microsomes assessed as half-life at 1 uM incubated for 45 mins by LC-MS/MS analysis. The format is ADME, Microsome.
Data set [28] is described as follows: Metabolic stability in human liver microsomes assessed as half-life at 1 uM incubated for 45 mins by LC-MS/MS analysis. The format is ADME, Microsome.
The nature of data set [29]: Metabolic stability in mouse liver microsomes assessed as parent compound remaining at 1 uM measured after 15 mins by LC-MS/MS analysis. The format is ADME, Microsome. The conditions noted are these: read-out: Stability.
Data set [30] is described as follows: Metabolic stability in rat liver microsomes assessed as intrinsic clearance at 1 uM incubated for 45 mins by LC-MS/MS analysis. The format is ADME, Microsome. Conditions: read-out: CLH.

Calls of active or inactive are those of the source. The rule behind the calls is not given here.

Description for KYSE-150 cell line: Antiproliferative activity against human KYSE-150 cells assessed as inhibition of cell growth incubated for 72 hrs by MTT assay
Description for MDA-MB-435: Antiproliferative activity against human MDA-MB-435 cells assessed as inhibition of cell growth incubated for 72 hrs by MTT assay
Description for in vitro: Cytotoxicity against HUVEC cells assessed as inhibition of cell growth incubated for 72 hrs by MTT assay

Take `COc1cc(CCc2cc(NC(=O)c3ccc(N4C[C@@H](C)N[C@@H](C)C4)cc3)n[nH]2)cc(OC)c1` [FEXAGRATINIB]: the Activity with MDA-MB-231 [1] was found to be 10.3%; in the data set with MDA-MB-231 [4] it was 26.31%; with MDA-MB-231 [5], 58.92%; in the data set with MDA-MB-231 [6], 2.72%; in the data set on MDA-MB-231 [10], 37.3%; in the data set with MDA-MB-231 [11] it was 14.77%. The Activity in the data set on MDA-MB-231 [12] is 29%. The 50% inhibitory concentration (IC50) (usually the point on the concentration scale where inhibition reaches its midpoint) stood at 8.92 µM in the data set with KYSE-150 cell line, 3.13 µM in the data set with HepG2, 21.6 µM with MDA-MB-435 and 7.19 µM with MDA-MB-231 [9]. The compound also showed an IC50 at 72 h in “in vitro” of 38 µM. In the data set with MDA-MB-231 [2], the viability at 5 µM amounted to 58%. Further, the outcome in the data set on MDA-MB-231 [3] was Active. In the data set on MDA-MB-231 [7], the inhibition in vivo at 10 mg/kg amounted to 52.6%. Besides, the inhibition entry in the data set on MDA-MB-231 [8] is “Active”.
Take `O=C(c1ccc(F)cc1)C1CCN(CCn2c(=O)[nH]c3ccccc3c2=O)CC1` [KETANSERIN]: the remaining at 5 min, 1 µM in [13] turned out to be 84.7%; in data set [21] it was 76.3%; in [25], 70.3%. The CLint scaled at 1 µM was found to be 584 mL/min/kg in data set [14], 60.8 mL/min/kg in data set [16] and 188 mL/min/kg in data set [30]. Further, the remaining at 0.5 h, 1 µM in data set [15] was found to be 55.1%; in data set [20], 24.5%; in [23] it was 18.3%. For the same compound, the remaining at 0.75 h, 1 µM in [17] worked out at 8.57%; in data set [22], 45.9%; in [24] it was 14.1%. Moreover, the remaining at 0.25 h, 1 µM worked out at 48.5% in [18], 68.5% in [26] and 38.3% in data set [29]. Also, the half-life (commonly the time in which the quantity being followed falls by half) at 1 µM in data set [19] was determined as 9.35 min; in data set [27], 13.2 min; in data set [28], 28.6 min.
